Data from article PMC12426930, “Antioxidant, Hypotensive, and Antidiabetic Breakthroughs: Bromelain Hydrolysis Unlocks Quinoa’s Peptide Potential - In Silico and In Vitro Approach” (Journal of Agricultural and Food Chemistry, 2025).
Marks after values point to notes of the source that are not given here. Values belong to the substance of their own block, whether it stands above or below them.

Assays:
[1] = test system: DPP-IV; set-up: method as in Vilcacundo et al. [40]; conditions: 250 μM; ref Vilcacundo et al. [40]; cited from earlier work
[2] = test system: α-glucosidase; conditions: 250 μM; ref Vilcacundo et al. [40]; cited from earlier work
Text: The inhibitory effects of quinoa-derived peptides (YDDER, NIYQIS, and QDQHQKIR) toward α-glucosidase are depicted in Table .

[3] = test system: α-amylase; conditions: ref Zhou et al. [70]; cited from earlier work
Text: As α-amylase plays a significant role in T2DM, this study investigated the inhibitory effects of synthetic quinoa peptides on this enzyme.

[4] = Oxygen radical absorbance capacity (ORAC) assay; conditions: AAPH, fluorescein, 37 °C, 150 min
Protocol: Oxygen radical absorbance capacity (ORAC) assay was performed following the method of Carvalho-Oliveira et al. Briefly, 30 μL of peptide (different concentrations 50–1000 μM) or standard (Trolox at 0–160 μM) were placed in a black 96-well plate. The reaction mixture comprised 180 μL of fluorescein (116.9 nM) and 90 μL of 2,2’-azobis(2-amidinopropane) dihydrochloride (AAPH) (40 mM). Finally, the fluorescence was recorded every 2 min for 150 min at excitation and emission wavelengths of 485 and 520 nm, respectively. All reactions were performed at 37 °C. The results were expressed as μmol Trolox equivalent (TE)/μmol of peptide. Quantification and interpretation of the data were done by Gen5 software, version 1.1 (BioTek Instruments, Winooski, VT, USA).

[5] = test system: 15-LOX enzyme (soybean lipoxygenase); test: Lipoxygenase inhibitor screening assay (LOX); format: biochemical; conditions: 31.25 μM; linoleic acid 1 mM, RT, 490 nm
Protocol: Lipoxygenase inhibitory activity assay (LOX) was determined following the manufacturer’s instructions (#760700). Thus, peptide concentrations (31.25–125 μM) were prepared with the assay buffer and tested in triplicate. First, 10 μL of the peptides at each concentration was mixed with 90 μL of 15-LOX enzyme (soybean lipoxygenase) in a 96-well plate. Then, three wells each contained assay buffer as blank (without enzyme), assay buffer as vehicle (with enzyme), and 15-LOX as positive control. Afterward, 10 μL of linoleic acid (1 mM) (substrate) was added to all wells and shaken for 10 min at RT. Finally, 100 μL of chromogen was added to all wells, and the plate was sealed and shaken for an additional 5 min at RT. The final reaction was measured at 490 nm, and the percentage of inhibition was calculated as. %inhibition=[1−Correctedvaluesofpeptide/Correctedvaluesofvehicle]×100

[6] = test system: rat intestinal acetone α-glucosidase; test: α-Glucosidase inhibition; format: biochemical
Protocol: α-Glucosidase inhibition assay was measured following the method of Vilcacundo et al., with slightly modifications. First, 100 μL of sample ([…]), positive control (1 mM acarbose), and/or negative control (Milli-Q-water), were added to 50 μL of rat intestinal acetone α-glucosidase (1 U/mL in 0.1 M, maleate buffer pH 6.9), and the mixture was incubated at 37 °C for 5 min. Then, 50 μL of substrate (2 mM maltose) was added into each tube, which was performed in a Thermomixer (37 °C, 1000 rpm, for 30 min). Finally, the reaction was stopped at 100 °C for 5 min. The glucose concentration in the reaction was measured using GOPOD (glucose oxidase/peroxidase) from Megazyme, with absorbance measured at 560 nm (Gen5 software, version 1.1, BioTek Instruments, Winooski, VT, USA). The percentage of inhibition was calculated relative to the non-inhibited control (negative control).

[7] = test system: angiotensin I converting enzyme; test: ACE-I inhibitory activity (fluorometric kit CS0002); format: biochemical; conditions: fluorometric kit, 37 °C, mean ± SD, n = 9
Protocol: ACE-I inhibitory assay was determined by ACE-I activity assay kit (fluorometric, CS0002). This assay is based on the hydrolysis of angiotensin I by ACE to yield angiotensin II. Briefly, all reagents were diluted in the assay buffer, and a total of 50 μL of peptide sample, positive control (captopril PHR1307), and assay buffer (blank) were added to a 96-well black plate. The standard was added at 0, 0.1, 0.2, 0.3, 0.4, 0.5, 0.6, and 0.8 nmol and adjusted to a final volume of 100 μL. […] Finally, fluorescence (λex, 320 nm; λem, 405 nm) was measured in five cycles for 5 min. Linear regressions were determined to calculate the enzymatic activity for each sample per concentration. Thus, one unit was defined as the amount of enzyme that releases 1 nmol of fluorescent substrate in 1 min at 37 °C. Finally, the inhibition (%) of each peptide and positive control was determined using regression analysis of the corresponding dose–response curves.

[8] = Cu^2+ chelation assay; conditions: pyrocatechol violet, pH 6.0, 37 °C, 10 min, mean ± SD, n = 9
Protocol: Cu^2+ chelation assay was determined according to Sanchez-Velazquez et al., with slight modifications. Briefly, 21 μL of sample (synthetic peptides, […]) or positive control (EDTA, 0.1 μg/μL) was added to 185 μL of buffer (sodium acetate, 50 mM, pH 6.0), and then 15 μL of copper solution (10 μg) and 9 μL of pyrocatechol violet (2 mM) were added for the reaction. For the blank well, 205 μL of buffer was added to the copper and pyrocatechol violet reaction mixture. The reaction was incubated for 10 min at 37 °C and then read at 632 nm (SPARK-10M, TECAN, Switzerland). Cu^2+ chelating activity was calculated as: %Chelatingactivity=Abscontrol−Abssample/Abscontrol×100

[9] = test system: porcine pancreatic α-amylase (PPA); test: α-Amylase inhibition; format: biochemical; conditions: CNPG3 substrate, 405 nm, 37 °C, mean ± SD, n = 9
Protocol: α-Amylase inhibition activity was performed using the 3,5-dinitrosalicylic acid (DNS) assay according to Zulfiqar et al. […] Then, 50 μL of substrate (2-chloro-4-nitro-[…] (CNPG3) (2 mM)) was added per well. Finally, absorbance was recorded at 405 nm (SPARK-10M, TECAN, Switzerland) at 37 °C for 10 min in 1-min intervals. The percentage of enzyme inhibition was calculated in relation to 100% enzymatic activity in the negative control (phosphate-buffered saline (PBS) buffer, enzyme, and substrate).

[10] = Fe^2+ chelation assay; conditions: 125 μM; ferrozine, pH 4.9, 37 °C, 10 min; mean ± SD, n = 9
Protocol: Fe^2+ chelation assay was measured according to Sanchez-Velazquez et al. with slightly modifications. 25 μL of sample (synthetic peptides, […]) or positive control (EDTA, 0.1 μg/μL) was added to 225 μL of buffer (sodium acetate, 100 mM, pH 4.9), then 15 μL of iron solution (0.1%, w/v) and 9 μL of ferrozine (40 mM) were added to start the reaction. For the blank well, 250 μL of buffer was added to the iron solution and ferrozine. The reaction was incubated 10 min at 37 °C and then read at 562 nm (SPARK-10M, TECAN, Switzerland). Fe^2+ chelating activity was calculated as described previously for copper.

[11] = test system: human DPP-IV; test: DPP-IV inhibitory activity; format: biochemical; conditions: H-Gly-Pro-pNA, 37 °C, mean ± SD, n = 9
Protocol: Dipeptidyl peptidase-IV (DPP-IV) inhibitory activity was measured following the method by Vilcacundo et al., with slightly modifications. […] For the negative control 70 μL of Tris Buffer was added. Finally, 100 μL of substrate (H-Gly-Pro-pNA, 100 mM) was added to all wells. The reaction was performed at 37 °C in the microplate reader (BioTek Instruments, Winooski, VT, USA), and the reaction was read at 405 nm for 30 min, with reading intervals of 2 min. Finally, data were plotted and fitted to a logarithmic regression to obtain dose–response curves.

[12] = test system: ACE-I; conditions: Chenopodium quinoa Willd peptide; ref Zheng et al. [24]; read-out: ACE-I inhibition IC50; cited from earlier work
Text: (§1) Yudho-Sutopo et al. reported the ACE-I inhibitory activity of four synthetic peptides from pearl garlic (DHSTAVW, KLAKVF, KLSTAASF, and KETPEAHVF). […] According to Yudho-Sutopo et al., the hydrophobic amino acid in the C-terminal and amino acids with a positively charged side-chain amino group, like in DHSTAVW, are determinants in the inhibition of ACE-I. Furthermore, a study by Zheng et al. reported an ACE-I inhibitory peptide – RGQVIYVL – from Chenopo ...

[13] = ref Zheng et al. [24]; cited from earlier work
Text: as §1

Substance: IQAQGGLT [DPP-IV quinoa-derived peptide reported by Vilcacundo et al]
DPP-IV inhibition [1]: 17.05%

Substance: IQEGGLT [quinoa-derived peptide reported by Vilcacundo et al]
α-glucosidase inhibition [2]: 55.85%

Substance: MMFPH [quinoa-derived peptide reported by Zhou et al]
α-amylase inhibition [3]: stronger α-amylase inhibition

LOX inhibition [5]: 8.44% | ACE-I inhibition ([7]; 125 μM): 6.8 ± 0.56^f % | inhibition ([7]; 250 μM): 9.75 ± 0.21% | α-amylase inhibition ([9]; 300 μM): 18.43 ± 0.33^a % | inhibition ([9]; 400 μM): 15.6 ± 0.34% | α-amylase inhibition ([9]; 500 μM): 15.37 ± 0.35^b %
Substance: QDQHQKIR [quinoa 11S globulin peptide, custom-synthesized by GenScript, purity 95%]
ORAC [4]: 0.02 μmol TE/μmol peptide | ORAC ([4]; mean ± SD, n = 9): 0.02 ± 0.00^c μM TE/μM Peptide | α-glucosidase inhibition ([6]; 300 μM, 2 mM maltose, pH 6.9, 37 °C, mean ± SD, n = 9): ND (no inhibitory effect was observed at the given concentration) | α-glucosidase inhibition ([6]; 400 μM, 2 mM maltose, pH 6.9, 37 °C, mean ± SD, n = 9): ND (no inhibitory effect was observed at the given concentration) | α-glucosidase inhibition ([6]; 500 μM, 2 mM maltose, pH 6.9, 37 °C, mean ± SD, n = 9): ND (no inhibitory effect was observed at the given concentration) | α-glucosidase inhibition ([6]; any of the tested concentrations (100–500 μM)): did not present any α-glucosidase inhibition | Cu^2+ chelating activity ([8]; 15.62 μM): 39.79 ± 1.4% | Cu^2+ chelating activity ([8]; 31.25 μM): 37.46 ± 0.26% | Cu^2+ chelating activity ([8]; 62.5 μM): 40.8 ± 0.31% | Fe^2+ chelating activity [10]: 5.11 ± 1.0% | DPP-IV inhibition ([11]; 125 μM): ND (no inhibitory effect was observed at the given concentration) | DPP-IV inhibition ([11]; 250 μM): ND (no inhibitory effect was observed at the given concentration) | DPP-IV inhibition ([11]; 500 μM): 5.26 ± 0.30^c %

Substance: RGQVIYVL
IC50 [12]: 38.2 µM | hydrophobic residue content [13]: 62.50%
